We go through one compound from ChEMBL document CHEMBL2074570, “The farnesyl protein transferase inhibitor SCH66336 is a potent inhibitor of MDR1 product P-glycoprotein” (Cancer Res, 2001).

This test deals with ATP-dependent translocase ABCB1 (Homo sapiens, UniProt P08183). Briefly: TP_TRANSPORTER: inhibition of DNR efflux (DNR: ? uM) in MDR1-expressing NIH3T3 cells. The test is classed as functional, cell-based.
Sequence of ATP-dependent translocase ABCB1 (P08183 whole entry): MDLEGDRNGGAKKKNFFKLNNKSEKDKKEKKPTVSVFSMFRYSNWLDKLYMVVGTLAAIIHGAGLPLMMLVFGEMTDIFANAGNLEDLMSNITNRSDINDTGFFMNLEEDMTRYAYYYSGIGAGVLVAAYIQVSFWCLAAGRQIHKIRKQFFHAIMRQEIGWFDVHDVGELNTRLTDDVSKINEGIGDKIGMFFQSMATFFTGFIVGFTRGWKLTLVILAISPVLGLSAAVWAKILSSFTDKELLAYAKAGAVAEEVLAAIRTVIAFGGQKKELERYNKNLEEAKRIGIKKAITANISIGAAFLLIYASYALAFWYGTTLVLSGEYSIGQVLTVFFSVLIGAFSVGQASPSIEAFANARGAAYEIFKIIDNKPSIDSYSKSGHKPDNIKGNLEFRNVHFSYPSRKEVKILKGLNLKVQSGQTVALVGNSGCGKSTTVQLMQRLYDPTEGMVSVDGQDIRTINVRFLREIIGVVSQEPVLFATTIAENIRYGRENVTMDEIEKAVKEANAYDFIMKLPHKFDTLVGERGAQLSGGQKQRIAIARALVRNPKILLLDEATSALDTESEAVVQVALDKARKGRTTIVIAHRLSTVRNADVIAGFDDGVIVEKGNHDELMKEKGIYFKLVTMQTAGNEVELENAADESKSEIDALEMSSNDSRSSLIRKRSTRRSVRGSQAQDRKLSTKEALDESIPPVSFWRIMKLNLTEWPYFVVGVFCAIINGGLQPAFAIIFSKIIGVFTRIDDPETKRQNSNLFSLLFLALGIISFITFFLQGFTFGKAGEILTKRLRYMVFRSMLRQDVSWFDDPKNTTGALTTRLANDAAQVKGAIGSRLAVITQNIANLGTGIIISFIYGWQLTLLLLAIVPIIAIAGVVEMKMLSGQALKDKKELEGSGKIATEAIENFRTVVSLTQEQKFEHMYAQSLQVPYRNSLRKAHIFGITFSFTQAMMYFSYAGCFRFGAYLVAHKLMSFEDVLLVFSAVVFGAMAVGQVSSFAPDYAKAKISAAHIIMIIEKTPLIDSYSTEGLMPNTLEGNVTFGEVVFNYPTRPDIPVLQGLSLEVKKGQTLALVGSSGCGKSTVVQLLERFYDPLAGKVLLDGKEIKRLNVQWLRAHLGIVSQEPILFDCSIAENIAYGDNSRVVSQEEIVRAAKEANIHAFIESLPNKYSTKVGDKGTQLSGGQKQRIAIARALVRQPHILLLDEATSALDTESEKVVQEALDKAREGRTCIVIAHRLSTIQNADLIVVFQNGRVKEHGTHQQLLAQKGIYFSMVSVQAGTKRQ

The IC50 is the midpoint of a concentration-inhibition curve. Low values mean greater potency in that assay, high ones weaker potency in that assay. `NC(=O)N1CCC(CC(=O)N2CCC([C@H]3c4ncc(Br)cc4CCc4cc(Cl)cc(Br)c43)CC2)CC1` [LONAFARNIB] showed an IC50 of 2.7 µM. That is a single-digit micromolar value.
